Measurements published in patent US20220202912A1, “Polypeptides in Preparation of Drugs for Treatment or Prevention of Rheumatoid Arthritis” (priority 2011, published 2022).
Where two headings read alike, the source gives them in different places. Where no end group is shown, it is not given here.

What was measured:
[1] = system: tumor in BALB/c nude mice; experiment: in vivo pharmacodynamics (antitumor) of PEG-modified HM-3 in BALB/c nude mice
Source text: Four different types of mPEG-ALD and mPEG-SC with different molecular weights are selected to modify the polypeptide […](named HM-3), i.e., mPEG-ALD5k, mPEG-ALD10k, mPEG-SC10k, mPEG-SC20k, and modification reaction conditions are explored and optimized.

[2] = system: AIA rat models; experiment: adjuvant-induced arthritis (AIA) rat models; format: in vivo, SD rats; details: for clinical scoring / swelling of left paw / swelling of right paw: 5 times
[3] = system: cotton ball granuloma; format: in vivo, SD rats; details: day 8
Method: The rats are randomly divided into a model control group, a positive control (dexamethasone) group, and mPEG-SC20k-HM-3 groups using subcutaneous injection at a high dose, a medium dose and a low dose, a total of 5 groups, and the drugs are administered to each group of animals by subcutaneous injection, for 7 days in succession.
Rats in each group are anesthetized with pentobarbital sodium (40 mg/kg) by intraperitoneal injection, and the abdominal coat is cut off. The skin in the middle of the lower abdomen is cut open under aseptic condition, and the incision is about 1 cm long. The subcutaneous tissue is expanded by vascular forceps, and 30 mg of sterile dry cotton balls (weighed accurately by an electronic balance before the test, and undergoing conventional autoclaving and drying for later use) are implanted hypodermically into the groin on one side. The incision is sutured, and an appropriate amount of amoxicillin is sprinkled on the incision to prevent infection.
The drug is administered on the same day after surgery, and is administered for 7 days in succession. On day 8, the rats are killed by cervical dislocation, the cotton balls are removed surgically, the fat tissue is removed, and the […] at 60° C. The mass of granuloma is expressed in mg (granulomatoma)/100 g (body weight). The granuloma mass difference between each administration group and the model control group is compared, and the inhibition rate is calculated. Data statistical analysis is performed on significant differences between the groups.
Inhibition rate (%)=(average granuloma mass of model control group−average granuloma mass of administration group)/average granuloma mass of model control group×100%.

[4] = system: HUVECs; experiment: Western blot of protein expression in HUVECs; format: cell-based, human; details: 0.5-8.0 μmol/L, 24 h
Method: 3.2 After the third generation of human umbilical vein endothelial cells (HUVECs) are cultured in a 6-well plate to more than 80% fusion, the polypeptide mPEG-SC20k-HM-3 is added to final concentrations of 0.5, 1.0, 2.0, 4.0, 8.0 μmol/L, and PBS is used as a blank control. The cells are incubated in a CO2 incubator at 37° C. for 24 h; the cells are digested with 0.25% trypsin and counted, the solution is centrifuged at 3000 rpm for 5 min, and the cells are collected.
(§1) 3.3 A protein extract solution is added at 20 μL/1×10^5 cells, and the cells are pipetted and dispersed, and stand at 4° C. for 30 min to lyse the cells.
(§2) 3.4 1/4 volume of 5×protein loading buffer is added, and boiling water bath is performed for 5-10 min.
(§3) 3.5 20 μL of protein sample is taken and 10% SDS-PAGE electrophoresis is performed.
(§4) 3.6 The protein on the gel is transferred to the PVDF membrane by using a wetting transfer method with a constant current of 100 mA for 1-2.5 h.
(§5) 3.7 The PVDF membrane is blocked with a blocking solution at room temperature for 2 h.
3.8 The membrane is washed for 3 times with PBST, 5 min each time. A primary antibody is added and the membrane stands at 4° C. overnight or is incubated at 37° C. for 2 h.
3.9 The membrane is washed for 3 times with PBST, 5 min each time. A secondary antibody is added and the membrane is incubated at room temperature for more than 2 h. […]

[5] = system: TLR-4; experiment: Western blot of TLR-4 protein in LPS-induced rat synovial cells; format: cell-based
Method: 3.1 U937 cells are added to a 6-well plate (1.5×10^5 cells/mL), PMA (25 ng/mL) is used for induction for 48 h, and the cells adhere and differentiate into macrophages. Positive drug Adalimumab (25 μg/mL, 50 μg/mL, 100 μg/mL, 200 μg/mL, 400 μg/mL), Avastin (25 μg/mL, 50 μg/mL) are added, the final concentrations of mPEG-SC20k-HM-3 are 2.25, 4.5, 9.0, 13.5, 18.0, 36 μmol/L, and isovolumetric PBS is added to the blank group and the model group. The cells are incubated in a CO2 incubator at 37° C. for 24 or 48 h. Rat synovial cells are induced with LPS for 24 h and then mPEG-SC20k-HM-3 is administrated to final concentrations of 2.25, 4.5, 9.0, 13.5, 18.0 μmol/L, and the cells are incubated in a CO2 incubator at 37° C. for 48 h.
as §1, §2, §3, §4, §5
3.8 The membrane is washed for 3 times with PBST, 5 min each time. […]

[6] = high dose 40 mg/kg once the other day
[7] = low dose 10 mg/kg once the other day
[8] = medium dose 20 mg/kg once the other day

mPEG-SC20k-Ile-Val-Arg-Arg-Ala-Asp-Arg-Ala-Ala-Val-Pro-Gly-Gly-Gly-Gly-Arg-Gly-Asp ({mPEG‑SC 20k}-IVRRADRAAVPGGGGRGD) [polypeptide III, No. 3]
antitumor effect in vivo ([1]; BALB/c nude mice): 50.23%
toxicity at an effective dose in vivo ([1]; body weight of nude mice basically stable): very low toxicity or no toxicity
elimination half life in vivo ([1]; compared with HM-3): greatly improved
clinical scoring [2, 6]: 5.29 ± 3.90
swelling of left paw [2, 6]: 4.40 ± 0.91 mm
swelling of right paw [2, 6]: 1.05 ± 1.31 mm
clinical scoring [2, 7]: 5.43 ± 2.15
swelling of left paw [2, 7]: 4.40 ± 0.91 mm
swelling of right paw [2, 7]: 0.76 ± 1.21 mm
clinical scoring [2, 8]: 5.71 ± 2.36
swelling of left paw [2, 8]: 4.48 ± 1.72 mm
swelling of right paw [2, 8]: 1.28 ± 1.27 mm
therapeutic effect on adjuvant-induced arthritis in rats (conclusion) ([2]; rat, in vivo): CONCLUSION: polypeptide III has therapeutic effect on adjuvant-induced arthritis, and its effect is higher than that of polypeptide. I.
Inhibition rate of cotton ball granuloma ([3]; 5 mg/kg sc once two days (G5)): 35.67%
cotton ball granuloma ([3]; 5 mg/kg sc once two days (G5)): 0.19 ± 0.03 mg(cotton ball granuloma)/100 g(weight)
Inhibition rate of cotton ball granuloma ([3]; 10 mg/kg sc once two days (G4)): 39.33%
cotton ball granuloma ([3]; 10 mg/kg sc once two days (G4)): 0.18 ± 0.02 mg(cotton ball granuloma)/100 g(weight)
Inhibition rate of cotton ball granuloma ([3]; 20 mg/kg sc once two days (G3)): 38.23%
cotton ball granuloma ([3]; 20 mg/kg sc once two days (G3)): 0.18 ± 0.03 mg(cotton ball granuloma)/100 g(weight)
expression of VEGF in HUVECs [4]: down-regulated
expression of integrin αν, integrin β3, MEK1, p-MEK1, PI3K, AKT1, p-AKT1, ERK1/2 and p-ERK1/2 in HUVECs [4]: down-regulated
dose with the best inhibitory effect on the expression of TLR-4 protein [5]: 13.5 µM
expression of TLR-4 protein in rat synovial cells ([5]; with the increase of dosage): down-regulation
